The text below walks through data of ChEMBL document CHEMBL3832761, “MMV Pathogen Box Bioactivity Data” (2017).

Values after ≈ are worked out from the molar mass of the structure shown.

Common to all, as to assay type: functional
The test system of experiment [1] is Mycobacterium tuberculosis. Briefly: AntiMycobacterium tuberculosis activity 2-week Alamar Blue 7H9/cholesterol/BSA/Tx MIC (uM). Conditions: 336 h. On the technique in general: Alamar Blue is a resazurin reagent that responds to reducing activity.
The test system of experiment [2] is Mycobacterium tuberculosis. Briefly: AntiMycobacterium tuberculosis activity 1-week GAST/Fe MIC (uM). Conditions: 168 h.
Experiment [3] deals with Mycobacterium tuberculosis. Briefly: AntiMycobacterium tuberculosis activity day 21 MIC99 in 7H9/2.5mM butyrate/pH6/0.1mM nitrite MIC99 (uM). Conditions: 504 h.
The test system of experiment [4] is Mycobacterium tuberculosis. Briefly: AntiMycobacterium tuberculosis activity 2-week 7H9/ADC/Tw MIC (uM). Conditions: 336 h.
The test system of experiment [5] is Mycobacterium tuberculosis. In words: AntiMycobacterium tuberculosis activity day 21 in 7H9/2.5mM butyrate/pH6/0.1mM nitrite MIC90 (uM). As to conditions: 504 h.
Experiment [6] concerns Mycobacterium tuberculosis. Briefly: (§1) AntiMycobacterium tuberculosis activity day 10 in 7H9/2.5mM butyrate/pH6/0.1mM nitrite MIC90 (uM). Conditions: 240 h.
For experiment [7], the system named is Mycobacterium tuberculosis. Briefly: AntiMycobacterium tuberculosis activity 2-week 7H9/DPPC/cholesterol/BSA/Tx MIC (uM). As to conditions: 336 h.
The test system of experiment [8] is Mycobacterium tuberculosis. The description is as §1. Conditions: 240 h. The source holds these as a separate data set.
In experiment [9] the test system is Mycobacterium tuberculosis. Briefly: AntiMycobacterium tuberculosis activity Replicating form: Average MIC90 (uM).
Experiment [10] concerns Mycobacterium tuberculosis. In words: AntiMycobacterium tuberculosis activity 1-week 7H9/cholesterol/BSA/Tx MIC (uM). Conditions: 168 h.
For experiment [11], the system named is Mycobacterium tuberculosis. In words: AntiMycobacterium tuberculosis activity 1-week 7H9/DPPC/cholesterol/BSA/Tx MIC (uM). As to conditions: 168 h.
The subject of experiment [12] is Mycobacterium tuberculosis. In words: AntiMycobacterium tuberculosis activity 1-week 7H9/ADC/Tw MIC (uM). As to conditions: 168 h.
In experiment [13] the test system is Mycobacterium tuberculosis. In words: AntiMycobacterium tuberculosis activity Non-Replicating form: Average MIC90 (uM).
Experiment [14] deals with Mycobacterium tuberculosis. Briefly: AntiMycobacterium tuberculosis activity 2-week 7H9/glucose/BSA/Tx MIC (uM). Conditions: 336 h.
Experiment [15] relates to Mycobacterium tuberculosis. In words: AntiMycobacterium tuberculosis activity 2-week Alamar Blue 7H9/ADC/Tw MIC (uM). Conditions: 336 h.
The subject of a further experiment is HepG2. Briefly: HepG2 CC50 (uM) Cytotoxicity. Conditions: Homo sapiens.
For experiment [16], the system named is Mycobacterium tuberculosis. Briefly: AntiMycobacterium tuberculosis activity 2-week GAST/Fe MIC (uM). As to conditions: 336 h.
In experiment [17] the test system is Mycobacterium tuberculosis. Briefly: AntiMycobacterium tuberculosis activity 1-week 7H9/glucose/BSA/Tx MIC (uM). As to conditions: 168 h.

For orientation: MIC means the smallest concentration in the dilution series that meets the test's criterion for growth inhibition. One may read the MIC90 as the lowest concentration that inhibits either 90% of growth or 90% of the strains tested, depending on the study. Higher therefore signals lower susceptibility. As a reminder, the CC50 is the concentration that lowers cell viability or growth by half. Low readings indicate harm at low concentration, high ones better tolerance by the cells. On to `COc1cccc(-n2nnnc2S(C)(=O)=O)c1`, for which the MIC in experiment [1] came out at 50 µM (≈ 12.7 µg/mL); in experiment [2] it was 0.78 µM (≈ 0.198 µg/mL); in experiment [3], 12.5 µM (≈ 3.18 µg/mL); in experiment [4], 25 µM (≈ 6.36 µg/mL); in [7] it was 50 µM (≈ 12.7 µg/mL); in [10], 19 µM (≈ 4.83 µg/mL). The MIC was found to be 12.5 µM (≈ 3.18 µg/mL) in experiment [11]; 12.5 µM (≈ 3.18 µg/mL) in [12]; 25 µM (≈ 6.36 µg/mL) in experiment [14]; 25 µM (≈ 6.36 µg/mL) in experiment [15]; 1.2 µM (≈ 0.305 µg/mL) in [16]; 9.4 µM (≈ 2.39 µg/mL) in experiment [17]. The MIC90 in experiment [5] is 12.5 µM (≈ 3.18 µg/mL); in [6], 6.25 µM (≈ 1.59 µg/mL); in experiment [8], 6.25 µM (≈ 1.59 µg/mL); in experiment [9] it was 9.47 µM (≈ 2.41 µg/mL); in experiment [13] it was 3.34 µM (≈ 0.849 µg/mL). This compound yielded a CC50 in the experiment with HepG2 of 1.7 µM.

As for `COC(=O)c1c(NC(=O)c2c(F)c(F)c(F)c(F)c2F)sc2c1CCCCC2`, the MIC stood at 1.56 µM (≈ 0.654 µg/mL) in [1]; 0.78 µM (≈ 0.327 µg/mL) in [2]; 3.1 µM (≈ 1.3 µg/mL) in [3]; 2.3 µM (≈ 0.965 µg/mL) in experiment [4]; 1.56 µM (≈ 0.654 µg/mL) in experiment [7]; 0.6 µM (≈ 0.252 µg/mL) in [10]. In addition, the MIC in experiment [11] is 0.6 µM (≈ 0.252 µg/mL); in experiment [12], 1.2 µM (≈ 0.503 µg/mL); in experiment [14], 1.2 µM (≈ 0.503 µg/mL); in [15] it was 1.56 µM (≈ 0.654 µg/mL); in [16] it was 0.78 µM (≈ 0.327 µg/mL); in experiment [17], 0.78 µM (≈ 0.327 µg/mL). Moreover, the MIC90 came out at 3.1 µM (≈ 1.3 µg/mL) in experiment [5]; 1.5 µM (≈ 0.629 µg/mL) in experiment [6]; 3.1 µM (≈ 1.3 µg/mL) in experiment [8]; 0.86 µM (≈ 0.361 µg/mL) in [9]; 3.8 µM (≈ 1.59 µg/mL) in experiment [13]. In the experiment on HepG2, this compound yielded a CC50 of 7.5 µM.

Turning to `CCc1c(C)nc(-n2nc(C)cc2NC(=O)c2ccccc2SC)[nH]c1=O`, the MIC in experiment [1] was greater than 50 µM; in [2] it was 0.1 µM (≈ 0.0383 µg/mL); in experiment [3], greater than 50 µM; in [4], greater than 50 µM; in experiment [7], greater than 50 µM; in experiment [10] it was 6.25 µM (≈ 2.4 µg/mL). Further, the MIC in experiment [11] is 3.13 µM (≈ 1.2 µg/mL); in experiment [12], greater than 50 µM; in experiment [14] it was greater than 50 µM; in [15], 37 µM (≈ 14.2 µg/mL); in experiment [16], 0.2 µM (≈ 0.0767 µg/mL); in experiment [17], 9.4 µM (≈ 3.6 µg/mL). The MIC90 in experiment [5] is greater than 50 µM; in experiment [6], 3.12 µM (≈ 1.2 µg/mL); in experiment [8], greater than 50 µM; in experiment [9] it was greater than 100 µM; in [13], 1.25 µM (≈ 0.479 µg/mL). For the same compound, the midpoint of cytotoxicity in the experiment with HepG2, the CC50, lay at 1.3 µM.

Consider `CC(=O)NCC1CN(c2ccc(-c3ccc(CNCc4cn[nH]n4)cc3)c(F)c2)C(=O)O1` (stereo not drawn), for which the MIC turned out to be 0.39 µM (≈ 0.171 µg/mL) in [1]; 0.1 µM (≈ 0.0438 µg/mL) in experiment [2]; 1.5 µM (≈ 0.658 µg/mL) in experiment [3]; 0.39 µM (≈ 0.171 µg/mL) in experiment [4]; 0.3 µM (≈ 0.132 µg/mL) in [7]; 0.3 µM (≈ 0.132 µg/mL) in [10]. Further, the MIC amounted to 0.1 µM (≈ 0.0438 µg/mL) in [11]; 0.3 µM (≈ 0.132 µg/mL) in [12]; 0.3 µM (≈ 0.132 µg/mL) in [14]; 0.39 µM (≈ 0.171 µg/mL) in [15]; 0.15 µM (≈ 0.0658 µg/mL) in [16]; 0.2 µM (≈ 0.0877 µg/mL) in [17]. Moreover, the MIC90 in experiment [5] was 0.39 µM (≈ 0.171 µg/mL); in experiment [6], 0.19 µM (≈ 0.0833 µg/mL); in experiment [8], 1.5 µM (≈ 0.658 µg/mL); in experiment [9], 0.51 µM (≈ 0.224 µg/mL); in [13], 0.31 µM (≈ 0.136 µg/mL). Further, the CC50 with HepG2 was greater than 100 µM.

As for `O=C(CCC1CCCCC1)Nc1cccc(-c2nnc(-c3ccco3)o2)c1`, the MIC amounted to 3.13 µM (≈ 1.14 µg/mL) in [1]; 1.2 µM (≈ 0.439 µg/mL) in experiment [2]; 1.5 µM (≈ 0.548 µg/mL) in experiment [3]; 2.3 µM (≈ 0.84 µg/mL) in [4]; 3.13 µM (≈ 1.14 µg/mL) in experiment [7]; 1.56 µM (≈ 0.57 µg/mL) in [10]. Besides, the MIC is 2.3 µM (≈ 0.84 µg/mL) in experiment [11]; 1.2 µM (≈ 0.439 µg/mL) in experiment [12]; 3.13 µM (≈ 1.14 µg/mL) in experiment [14]; 2.3 µM (≈ 0.84 µg/mL) in experiment [15]; 1.2 µM (≈ 0.439 µg/mL) in experiment [16]; 2.3 µM (≈ 0.84 µg/mL) in [17]. Further, the MIC90 in experiment [5] amounted to 1.5 µM (≈ 0.548 µg/mL); in experiment [6], 1.5 µM (≈ 0.548 µg/mL); in experiment [8], 1.5 µM (≈ 0.548 µg/mL); in experiment [9], 5.42 µM (≈ 1.98 µg/mL); in experiment [13], 13.7 µM (≈ 4.99 µg/mL). Further, in the experiment on HepG2, the CC50 was greater than 100 µM.

With `Cc1ccc(NC(=O)CC2COc3ccccc3O2)cc1Cl` (stereo not drawn), the MIC in experiment [1] was 25 µM (≈ 7.94 µg/mL); in experiment [2], 9.4 µM (≈ 2.99 µg/mL); in experiment [3], greater than 50 µM; in [4] it was 50 µM (≈ 15.9 µg/mL); in [7] it was 37 µM (≈ 11.8 µg/mL); in experiment [10], 19 µM (≈ 6.04 µg/mL). The MIC worked out at 19 µM (≈ 6.04 µg/mL) in experiment [11]; 37 µM (≈ 11.8 µg/mL) in [12]; 25 µM (≈ 7.94 µg/mL) in experiment [14]; 50 µM (≈ 15.9 µg/mL) in experiment [15]; 12.5 µM (≈ 3.97 µg/mL) in experiment [16]; 19 µM (≈ 6.04 µg/mL) in experiment [17]. Besides, the MIC90 in experiment [5] is 50 µM (≈ 15.9 µg/mL); in experiment [6] it was 50 µM (≈ 15.9 µg/mL); in experiment [8], greater than 50 µM; in experiment [9], 53.8 µM (≈ 17.1 µg/mL); in experiment [13] it was 56.9 µM (≈ 18.1 µg/mL). The compound further yielded a CC50 in the experiment on HepG2 of 66.7 µM.
